Results reported in patent US10632106B2, “Methods of cancer treatment with 2-(1′H-Indole-3′-carbonyl)-thiazole-4-carboxylic acid methyl ester” (Ariagen, Inc., priority 2009, dated 2020).
Marks after values point to notes of the source that are not given here.

How the values were obtained:
[1] = ITE toxicity monitoring, 7-day i.p. dosing of ITE nano-suspension in C57BL/6 mice; type: in vivo; details: for #LYMPH / #NEUT / ALT / AST / BUN / NEUT / PLT / TP / WBC: group mean
Method: ITE nano-suspension was prepared by milling ITE powder in water containing 1% CMC-Na (sodium carboxymethyl cellulose), 0.5% SLS (sodium lauryl sulfate), 0.085% PVP K90 (polyvinylpyrrolidone K90), and 0.2% Benzoate with a Media Wet Milling Machine (Dispermat SL-nano, WAB Willy A. Bachofen A G, Muttenz, Switzerland) until reached a desired size range. The particle size was determined by a Laser Diffraction Particle Size Analyzer (MS2000, Malvern Instruments, Worcestershire, UK). The parameters of particle sizes were determined as D10 (diameter of 10% of particles)=67 nm, D50=114 nm, and D90=207 nm. The nano-suspension thus prepared was stored at 4° C. until use.
Female C57BL/6 mice, 6 to 8 week old, were randomly assigned to 4 dose groups (0, 20, 100, and 500 mg/kg b.w.) each with 6 animals. ITE nano-suspension was administered by i.p. injection once daily for 7 consecutive days. Mortality, clinical signs, body weight, and food consumption were recorded. Data on hematology (3 of 6 mice) and serum chemistry (the other 3 of 6 mice) were collected. TK (Toxicokinetic) parameters were determined as described in Example 1 and plasma levels of ITE at both 1 and 3 hr. post dosing on day 1, 3, and 7 were measured. A gross observation of major organs at necropsy was conducted.

[2] = test system: human liver cancer cell line HepG2 xenografts; assay: HepG2 xenograft growth inhibition in nude mice; type: in vivo; details: 80 mg/kg i.p. once daily
Method: All the procedures related to animal handling, care, and the treatment in the study were performed following guidelines approved by an Institutional Animal Care and Use Committee (IACUC) of Crown Bioscience, Inc. (Santa Clara, Calif., USA, a contract research organization we hired) based on the guidance of the Association for Assessment and Accreditation of Laboratory Animal Care (AAALAC). Animals were checked for any effects of tumor growth and drug treatment on normal behavior such as mobility, food and water consumption, body weight gain/loss (gross body weights were measured twice weekly), eye/hair matting, and any other abnormal effect. Death and observed clinical signs were recorded on the basis of the number of animals within each group. Individual animals with a tumor volume exceeding 3,000 mm^3 or animals of a group with a mean tumor volume exceeding 2,000 mm^3 were euthanized. In addition, animals showing signs of severe distress and/or pain, dropping body weight more than 20% from that at the start of treatment, or losing the capability of accessing adequate food or water were humanely sacrificed.
Each mouse was inoculated subcutaneously at the right flank with the LNCaP cells (1×10^7) in 0.1 ml of PBS for tumor development. When a mean tumor volume reached around 150 mm^3, the tumor-bearing mice were divided into homogeneous blocks based on their tumor volumes followed by a randomization of mice in each block into treatment groups (thus minimizing variations in tumor response to treatments due to the differential in initial mean tumor volumes). Each treatment group was consisted of 8 tumor-bearing mice. Vehicle (DMSO) or ITE in the vehicle at specified doses were administered to the mice by either i.p. (intraperitoneal) or p.o. (oral) injection once or twice daily for 28 continuous days as indicated.
Tumor volume was measured twice weekly in two dimensions using a caliper and the volume was calculated with a formula of: V=0.5 a×b^2, where a and b are the long and short diameter (in mm) of a tumor, respectively. The tumor volume was then used for calculations of both TGI (Tumor Growth Inhibition) and TGD (Tumor Growth Delay). The TGI was determined by: TGI=ΔT/ΔC×100%, where ΔT was a difference between the mean tumor volume at a specified day of observation and that at the day treatment starts (day 1) for a drug treated group whereas ΔC was the same difference measured for the control group. The TGD was calculated as: TGD=T−C, where T was the time (in days) required for tumors in a drug treated group to reach a predetermined mean tumor volume and C the time (in days) in the control group to reach the same volume. A tumor weight was derived by equating 1,000 mm^3 in volume to 1,000 mg in weight. A net body weight was then derived by subtracting a tumor weight from a corresponding gross body weight with the tumor.
Summary statistics, including mean and the standard error of the mean (SEM), are provided for the tumor volume of each group at each time point. Statistical analysis of difference in tumor volume among groups was conducted on a data set either at the best therapeutic time point or at the final dosing day as indicated. The tumor volume data were log-transformed and evaluated using a one-way ANOVA followed by Tukey's test when significance was observed. All data were analyzed using SPSS 16.0 and p<0.05 was considered to be statistically significant.
The culture and inoculation of human prostate cancer cell line LNCaP were as described in Example 1. The manipulation for human liver cancer cell line HepG2 (ATCC) was similar as that for LNCaP except that DMEM (instead of RPMI-1640) medium was used, the L-glutamine was not used, and 2×10^6 cells were used for inoculation into female nude mice. The handling of human ovarian cancer cell line OVCAR-3 (ATCC) was the same as that of LNCaP except that the DMEM medium was used and 5×10^6 cells were used for inoculation into female nude mice. […]

[3] = 20 mg/kg ITE nano-suspension i.p. once daily 7 days
[4] = 100 mg/kg ITE nano-suspension i.p. once daily 7 days
[5] = 500 mg/kg ITE nano-suspension i.p. once daily 7 days
[6] = ITE nano-suspension 20, 100, 500 mg/kg b.w. i.p. once daily for 7 days

## COC(=O)c1csc(C(=O)c2c[nH]c3ccccc23)n1 [ITE, 2-(1′H-indole-3′-carbonyl)-thiazole-4-carboxylic acid methyl ester]
[1]; 20 mg/kg (low dose) group
  BUN raised over vehicle: 1.4 folds
[1]; [3]
  #LYMPH: 3.35 ×10^9 cells
  #NEUT: 1.08 ×10^9 cells
  ALT: 43.2 U/L
  AST: 118.1 U/L
  BUN: 10.5* mmol/L
  NEUT: 23.3%
  PLT: 435 ×10^9 cells
  TP: 39.5 g/L
  WBC: 4.68 ×10^9 cells
[1]; 100 mg/kg (mid) group
  WBC raised: 2.6 folds
[1]; [4]
  #LYMPH: 3.5 ×10^9 cells
  #NEUT: 3.62 ×10^9 cells
  ALT: 33.2 U/L
  AST: 131.6 U/L
  BUN: 7.3 mmol/L
  NEUT: 46.6%
  PLT: 668 ×10^9 cells
  TP: 40.8 g/L
  WBC: 10.77* ×10^9 cells
[1]; 500 mg/kg (high dose) group
  ALT raised over vehicle control: 3.2 folds
  TP (total protein) raised over vehicle control: 1.2 folds
[1]; 500 mg/kg (high dose) group, not significant
  AST raised over vehicle control: 1.8 folds
[1]; 500 mg/kg (high) group, not significant
  WBC raised: 2.0 folds
[1]; [5]
  #LYMPH: 4.81 ×10^9 cells
  #NEUT: 3.4 ×10^9 cells
  ALT: 74.5* U/L
  AST: 151.2 U/L
  BUN: 9.1 mmol/L
  NEUT: 40.5%
  PLT: 1075 ×10^9 cells
  TP: 49.5* g/L
  WBC: 8.38 ×10^9 cells
[1]; [6]
  body weight loss: no significant body weight loss
  mortality: no mortality observed except that one mouse in 20 mg/kg b.w. (low dose) group died
[1]; all 3 ITE treated groups, day 1 of the study
  food consumption: dramatic decrease in food consumption
[1]; all the ITE treated groups
  major organ inspection at necropsy: No abnormality was observed
[2]
  net body weight loss: no obvious net body weight loss
[2]; at a tumor volume of 800 mm^3
  TGD (Tumor Growth Delay): 29 days
[2]; day 22, TGI=ΔT/ΔC×100%
  TGI (Tumor Growth Inhibition): 25%
